Results on three compounds are retold here after US10364222B2, “Cyclic amine derivative and medical use thereof” (Toray Industries, Inc., priority 2016, dated 2019).

Assay [1] has as its system IL-17 production in mouse splenocytes. Kind of assay: Suppressive effect on IL-17 production by IL-23 stimulation in mouse splenocytes. The assay is classed as cell-based. As to conditions: Splenocyte, 72 h, at 5 μmol/L of the test compound, 10 ng/mL human IL-23, 3 days, read-out: IL-17 production inhibition rate (%). The gist of the method:
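Splenocytes from male C57BL/6J mice (3×10^5/well, with 100 U/mL human IL-2) stimulated with 10 ng/mL human IL-23 plus compound (0.1% DMSO) for 3 days at 37 °C. Supernatant IL-17 measured by ELISA; inhibition calculated against unstimulated and IL-23-only wells.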

Assay [2] concerns DNFB-induced mouse allergic dermatitis model. Kind of assay: DNFB-induced mouse allergic dermatitis model. The assay is classed as in vivo. As to conditions: BALB/c mice; 10 mg/kg orally one hour before induction; 24th hour after induction; vs vehicle, Student's t-test P<0.05. As for the experimental part: Using increase in the ear swelling rate as an index of exacerbation of symptoms, the effect of the cyclic amine derivative (I) or a pharmacologically acceptable salt thereof in a DNFB-induced mouse allergic dermatitis model was evaluated. The DNFB-induced mouse allergic dermatitis model was prepared by a partially modified method by Curzytek et al. (Pharmacological Reports, 2013, Vol. 65, p. 123′7-1246).
BALB/c mice (female, 6 weeks old) (Charles River Laboratories Japan, Inc.) were used at 7 weeks old after preliminary breeding. To the back of the mice, 25 μL of a 0.5 v/v % DNFB solution dissolved in acetone:olive oil (4:1) was applied. The next day, the same operation was repeated to sensitize the mice. Four days after the sensitization, 10 μL each of a 0.2 v/v % DNFB solution dissolved in acetone:olive oil (4:1) was applied to both sides of the right auricle of the sensitized mice to induce inflammation.
One hour before induction, the compound of Example 20, the compound of Example 29, or the compound of Example 57 was administered at a dose of 10 mg/kg to the mice. The compound of Example 20, the compound of Example 29, and the compound of Example 57 were suspended in a 0.5 w/v % methylcellulose solution and orally administered. The group in which the compound of Example 20 was administered to mice was defined as the Example-20 compound administration group, the group in which the compound of Example 29 was administered was defined as the Example-29 compound administration group, and the group in which the compound of Example 57 was administered was defined as the Example-57 compound administration group. […]
The right ear thickness before application of the DNFB solution (before induction) on the induction day and the right ear thickness at the 24th hour after induction were measured with a digital micrometer (Mitutoyo Corporation). The swelling rate of the auricle was calculated by Formula 3 and used as an index of the drug efficacy evaluation. […]

With `CC(=O)N1CCCC[C@@H]1C(=O)Nc1ccc(-c2ccccc2OC(F)(F)F)c(Cl)c1` [Example 20, (R)-1-acetyl-N-(2-chloro-2′-(trifluoromethoxy)-[1,1′-biphenyl]-4-yl)piperidine-2-carboxamide], the inhibition at 5 µM in assay [1] amounted to 99.7%. Moreover, the “ear swelling rate (%)” value in assay [2] is “statistically significantly suppressed”.

Regarding `CN(CC(=O)N1CCCC[C@@H]1C(=O)Nc1ccc(-c2ccccc2OC(F)(F)F)c(Cl)c1)S(C)(=O)=O` [Example 29, (R)-N-(2-chloro-2′-(trifluoromethoxy)-[1,1′-biphenyl]-4-yl)-1-(2-(N-methylmethylsulfonamide)acetyl)piperidine-2-carboxamide], the inhibition at 5 µM in assay [1] stood at 100%. For the same compound, in assay [2], the “ear swelling rate (%)” value was “statistically significantly suppressed”.

With `O=C(Nc1ccc(-c2ccccc2OC(F)(F)F)c(Cl)c1)[C@H]1CCCCN1C(=O)Cn1cnnn1` [Example 57, (R)-1-(2-(1H-tetrazol-1-yl)acetyl)-N-(2-chloro-2′-(trifluoromethoxy)-[1,1′-biphenyl]-4-yl)piperidine-2-carboxamide], the inhibition at 5 µM in assay [1] is 101%. For the same compound, the “ear swelling rate (%)” value in assay [2] is “statistically significantly suppressed”.
